Patent US6429191B1, “Treatment of hearing impairments” (Genentech, Inc., priority 1996, dated 2002)
Where two headings read alike, the source gives them in different places.

What was measured:
[1] = test system: hair cells in cochlear explants; assay: Protective effects in cochlear explant cultures co-treated with ototoxins, hair cell count; type: cell-based, rat; conditions: growth factor added together with ototoxin; data not shown
Experimental: (§1) FIGS. 9A and 9B depict quantitation of protective effects of NT-4/5 on SGNs (FIG. 9A) and hair cells (FIG. 9B). […] The same experimental procedures were performed as in FIGS. 6A and 6B. The error bars are SEM and ** indicate that as compared to the cultures containing an ototoxin alone, p<0.001. “Con” indicates control culture.
(§2) The protective effect of neurotrophins against ototoxicity was determined in the organotypic cultures of postnatal cochlear explants described in the Examples above. […] A human recombinant neurotrophin (Genentech, Inc.) or other growth factors, alone or in combination, was added to the culture at the same time the ototoxin was added.
(§3) Two days after treatment with ototoxins or co-treatment with ototoxins and neurotrophins (or other growth factors), the cochlear explant cultures were fixed in 4% paraformaldehyde in 0.1 M phosphate buffer (pH 7.4) for 30 min, washed in PBS, and subjected to double histochemical staining of the cochlear explant cultures. After incubation with the monoclonal antibody N52 against neurofilament protein (200 kd) in 1% Triton X100 containing 3% normal goat serum (“NGS”) for 2 days at 4° C., the explants were incubated with a Texas red-conjugated goat anti-mouse secondary antibody (1:70; Cappel) at room temperature for 40 min. The preparations were then stained with FITC-conjugated phalloidin (0.5 μg/ml; Sigma) for 45 min, washed in PBS and mounted in Fluoromount-G (Southern Biotechnology Associates, Birmingham, Ala.) which contains an anti-fading agent.

[2] = test system: SGNs in cochlear explants; assay: Protective effects in cochlear explant cultures co-treated with ototoxins, SGN peripheral axon count; type: cell-based, rat; conditions: for protective effects on SGNs against ototoxins: growth factor added together with ototoxin, data not shown; for neuroprotection of SGNs against sodium salicylate and gentamicin: 20 ng/ml neurotrophin, sodium salicylate 5 mM or gentamicin 3 mM
Experimental: as §1
FIG. 10 depicts quantitation of neuroprotection of different neurotrophins against sodium salicylate (Sal) and gentamicin (Gent). […] Sodium salicylate (5 mM) or gentamicin (3 mM) was added either alone or in combination with one of the neurotrophins (20 ng/ml) to 2-day cultures and the cultures were kept for 2 more days. The same experimental procedures were performed as in FIGS. 6A and 6B. […] The error bars are SEM and ** indicate that as compared to the cultures containing an ototoxin alone, p<0.001.
as §2, §3

[3] = test system: SGNs in cochlear explants
Experimental: (§4) Cochlear explants were prepared from P3 rats, embedded and cultured in 3-D collagen gels. Ototoxins were added at various concentrations to 2-day cultures for 2 more days. After the preparations were processed for double histochemistry with N52 and phalloidin, they were examined under Zeiss Axiophot epifluorescent microscope. For each culture, SGN peripheral axons and hair cells were counted from 3-4 randomly selected fields in the middle turn of each culture. Data were collected from 6 or more cultures for each of the experimental groups. Two-tailed, unpaired t-test was used for statistical analysis. […] The error bars are SEM and double asterisks (**) indicate significant differences between experimental and control cultures (p<0.001).
(§5) An organotype cochlear explant culture that utilizes a 3-D collagen matrix cultures and maintains its normal, in vivo architecture. Cochleae were dissected from postnatal day 3 (P3) Wistar rats. After spiral ligament and stria vascularis tissues were removed, the remaining cochlear tissue containing the spiral ganglion and organ of Corti was cut into 3 pieces according to the basal, middle and apical turns. The explants were then embedded in a three-dimensional (“3-D”) collagen matrix of a droplet (20 μl) of freshly made collagen gel which was placed on the bottom of a 35 mm Nunc tissue culture dish, modified from what described previously (Gao et al., 1991) as follows. Rat tail collagen (type I, Collaborative Research) was mixed with 10× BME medium and 2% sodium carbonate in a ratio of 10:1:1 and placed on ice just before use. The collagen matrix containing the cochlear explants were incubated at 37° C. for 5-10 min until it gelled. The matrix was then cultured in defined serum-free medium using sufficient medium to cover the explants (2 ml of serum-free medium (BME plus serum-free supplement (Sigma 1-1884), 1% BSA, 2 mM glutamine, and 5 mg/ml glucose; containing no antibiotics). The culture medium was changed every other day thereafter.
(§6) While the neurofilament antibody (Texas red-mediated) labeled the somata and peripheral axons of SGNs, the phalloidin-FITC conjugate stained the stereocillia bundles of hair cells. Three cultures per experimental paradigm were studied in each individual experiment. Three or more separate repetitions of the experiment were conducted to validate the ototoxic effect.
(§7) As the density of the radial peripheral axons of SGNs appeared to be a reliable index of the number of surviving SGNs, the number of the peripheral axons of SGNs from a given length (100 μm) in the middle turn of the cochlea was counted for different experimental groups and plotted in FIG. 6A. Phalloidin-labeled hair cells were also counted in the same way (FIG. 6B).
(§8) Quantitative analysis of the numbers of peripheral axons of SGNs and hair cells in the cochlear explants were performed. The N52 and phalloidin double-labeled cochlear explants were examined under a Zeiss Axiophot epifluorescent microscope. As the density of radial peripheral axons of SGNs reflects the number of surviving SGNs, the number of these axons was counted using a grid ocular reticule covering a distance of 100 μm in the middle turns only. The surviving hair cells were counted in a similar manner. […] For each culture, SGN peripheral axons and hair cells were counted from 3-4 randomly selected fields in the middle turn of each culture.

[4] = test system: hair cells in cochlear explants
Experimental: as §4, §5, §6, §7, §8

[5] = test system: spiral ganglion neurons (SGNs); assay: Survival of dissociated spiral ganglion neurons in serum-free culture; type: cell-based, rat; conditions: for survival-promoting effect on SGNs: P5 rat SGNs, 2 days, serum-free medium, neurotrophins 0.1-50 ng/ml
Experimental: FIG. 1 is a histogram depicting the effects of NT-4/5 on SGN survival. SGNs were prepared from P5 rats, plated and kept for 2 days in serum-free medium in the absence or presence of NT-4/5 at different concentrations. Viable SGNs were identified by labeling with a neurofilament monoclonal antibody (N52), viewed under a Zeiss Axiophot microscope, and counted using a grid ocular reticule covering an area of […]. For each culture, about 10 randomly selected fields were counted. Data were collected from 3 to 5 cultures and normalized as a percentage of the number of viable neurons in the control cultures in each of the experiments. The error bars represent SEM.
FIG. 2 is a histogram depicting the effects of different neurotrophins on SGN survival. SGNs were prepared from P5 rats and maintained for 2 days in serum-free medium without or with different neurotrophins at different concentrations. Quantitation of viable SGNs was made in the same way as in FIG. 1 and the error bars are SEM. […] Difference between NT-3 and NT-4/5 or BDNF was very significant at all doses (P<0.001). No statistical difference was found between NT-4/5 and BDNF except the dose of 0.1 ng/ml (P<0.01).
Identical results (not shown) were also obtained with a different neuronal marker, a monoclonal antibody 3A10 (Furley et al., 1990). SGNs were dissociated from postnatal day 5 (P5) rat cochleae and plated in defined serum-free medium. […] The enzyme was inactivated with a mixture of 0.005% soybean trypsin inhibitor (Sigma) and 0.005% DNase (Worthington) before trituration with 0.05% DNase in Eagle's Basal Medium (“BME”). The dissociated cells were preplated on a 35 mm untreated tissue culture dish for 25 min to enrich the neuronal population. Under these experimental procedures, about 10% of the cell population were spiral ganglion neurons (“SGNs”) as determined by immunocytochemistry with a monoclonal antibody (N52; Boehringer) against neurofilaments (200 kd; Boehringer). […] Cells were plated at a density of 80,000/well. In control cultures about 75% of SGNs died after 2 days, presumably due to a lack of growth factors.

[6] = test system: spiral ganglion neurons (SGNs); assay: Neurotrophin protection of dissociated SGNs against cisplatin neurotoxicity; type: cell-based, rat; conditions: for protection of SGNs compared with cultures containing cisplatin alone / protective effects against cisplatin neurotoxicity: 10 ng/ml neurotrophin; for protection of SGNs compared with cultures containing cisplatin alone: 4 μg/ml cisplatin; for protective effects against cisplatin neurotoxicity: cisplatin 1, 2 or 4 μg/ml
From the text: Quantitation of viable SGNs was done in the same way as in FIG. 1. The error bars stand for SEM. […] While no difference was found between cultures containing NT-4/5 and cultures containing BDNF, the difference between cultures containing NT-3 and cultures containing NT-4/5 or BDNF was statistically very significant (P<0.001).

[7] = cited from earlier work
trkC receptor = trkC receptor (Homo sapiens, UniProt Q16288); conditions: compared with NT-3; cited from earlier work
trkC receptor, sequence (Q16288 32-839): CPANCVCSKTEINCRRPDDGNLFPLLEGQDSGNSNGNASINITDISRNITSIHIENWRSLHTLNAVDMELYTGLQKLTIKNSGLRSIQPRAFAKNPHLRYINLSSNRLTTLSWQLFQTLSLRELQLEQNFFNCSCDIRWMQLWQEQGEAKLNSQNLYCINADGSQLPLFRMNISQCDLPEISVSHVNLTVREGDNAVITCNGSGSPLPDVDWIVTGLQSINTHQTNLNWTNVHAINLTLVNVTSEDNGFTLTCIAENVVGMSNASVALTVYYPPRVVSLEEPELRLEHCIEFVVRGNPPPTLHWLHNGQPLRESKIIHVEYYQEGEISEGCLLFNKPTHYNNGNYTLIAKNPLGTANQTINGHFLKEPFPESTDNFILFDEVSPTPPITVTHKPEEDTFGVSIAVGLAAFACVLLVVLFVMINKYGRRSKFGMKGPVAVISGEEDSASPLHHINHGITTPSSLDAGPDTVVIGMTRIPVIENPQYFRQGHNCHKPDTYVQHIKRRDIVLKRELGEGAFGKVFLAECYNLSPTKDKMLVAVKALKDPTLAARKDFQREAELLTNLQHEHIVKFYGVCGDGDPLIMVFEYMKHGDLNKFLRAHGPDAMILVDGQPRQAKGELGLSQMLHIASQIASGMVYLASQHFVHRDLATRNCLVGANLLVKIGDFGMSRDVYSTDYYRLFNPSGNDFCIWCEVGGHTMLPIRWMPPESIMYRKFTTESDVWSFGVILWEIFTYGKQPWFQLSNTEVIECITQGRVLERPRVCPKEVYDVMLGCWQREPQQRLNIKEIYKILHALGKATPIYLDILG

## platelet-derived growth factor [PDGF]
[1]
  protective effects on hair cells against ototoxins: did not show detectable protective effects
[2]
  protective effects on SGNs against ototoxins: did not show detectable protective effects

## gentamicin
[3]; 5 mM
  SGNs remaining intact: approximately 40%
[3]; 0.01 to 0.5 mM
  damage to SGNs: not significantly damaged
[3]; 1-5 mM
  damage to SGNs: started to induce SGN degeneration
[3]; figure legend FIG. 7A
  doses at which damage to SGNs starts: higher than 1 mM
[4]; 0.01 to 0.5 mM
  effect on hair cells: a substantial number of hair cells in the cochlea were killed
[4]; 1-5 mM
  effect on hair cells: eliminated virtually all hair cells

## insulin-like growth factor-1 [IGF-1]
[1]
  protective effects on hair cells against ototoxins: did not show detectable protective effects
[2]
  protective effects on SGNs against ototoxins: did not show detectable protective effects

## basic fibroblast growth factor [βFGF]
[5]
  survival-promoting effect on SGNs: No survival-promoting effects
[1]
  protective effects on hair cells against ototoxins: did not show detectable protective effects
[2]
  protective effects on SGNs against ototoxins: did not show detectable protective effects

## O=C([O-])c1ccccc1O.[Na+] [sodium salicylate]
[3]; 5 mM, added to 2-day cultures for 2 more days
  effect on SGNs and their peripheral axons: massive death of SGNs and degeneration of their peripheral axons
[3]; cochlear explant cultures
  dosage which starts to induce significant damage to SGNs: 3 mM
[3]; various concentrations
  SGN degeneration, dose dependence: dose dependent
[4]; 5 mM
  effect on hair cells: all hair cells remained intact
[4]; 10 mM
  hair cell loss: no significant hair cell loss

## neurotrophin-3 [NT-3]
[5]
  survival-promoting effect on SGNs: significant survival-promoting effect
[5]; all doses (0.1-50 ng/ml)
  potency on SGN survival compared with other neurotrophins: less potent than NT-4/5 or BDNF
[2]
  neuroprotection of SGNs against sodium salicylate and gentamicin: protective effects on SGNs
[6]; 10 ng/ml
  potency of protection against cisplatin compared with other neurotrophins: less potent compared to NT-4/5 or BDNF
[6]
  protection of SGNs compared with cultures containing cisplatin alone: very significant protecting effects
  protective effects against cisplatin neurotoxicity: significant protective effects

## transforming growth factor-β1 [TGF-β1]
[5]
  survival-promoting effect on SGNs: No survival-promoting effects
[1]
  protective effects on hair cells against ototoxins: did not show detectable protective effects
[2]
  protective effects on SGNs against ototoxins: did not show detectable protective effects

## [H]/N=C(/N)N[C@H]1[C@H](O)[C@@H](O)[C@H](O[C@@H]2O[C@@H](C)[C@](O)(C=O)[C@H]2O[C@@H]2O[C@@H](CO)[C@H](O)[C@@H](O)[C@@H]2NC)[C@@H](N/C(N)=N\[H])[C@@H]1O [streptomycin]
[7]; 1 gram per day for greater than 1 week
  patients developing measurable hearing loss: 4 to 15%
[7]; 1 gram per day
  incidence of vestibular impairment: 25%
[7]; 2 grams daily for 60 to 120 days
  patients displaying some vestibular impairment: ~75%

## transforming growth factor-α [TGF-α]
[1]
  protective effects on hair cells against ototoxins: did not show detectable protective effects
[2]
  protective effects on SGNs against ototoxins: did not show detectable protective effects

## epidermal growth factor [EGF, growth factor (Collaborative Research)]
[5]
  survival-promoting effect on SGNs: No survival-promoting effects
[1]
  protective effects on hair cells against ototoxins: did not show detectable protective effects
[2]
  protective effects on SGNs against ototoxins: did not show detectable protective effects

## brain-derived neurotrophic factor [BDNF]
[5]
  survival-promoting effect on SGNs: very significant survival-promoting effects
[5]; concentrations from 1-50 ng/ml
  potency on SGN survival compared with other neurotrophins: equal in potency to NT-4/5
[2]
  neuroprotection of SGNs against sodium salicylate and gentamicin: protective effects on SGNs
[6]
  protection of SGNs compared with cultures containing cisplatin alone: very significant protecting effects
  protective effects against cisplatin neurotoxicity: Equivalent protective effects

## R31A: NT-3 with mutation at position R31 to alanine
trkC receptor
  trkC binding of NT-3 mutant: increased trkC binding
